Where two headings read alike, the source gives them in different places.
Experiments:
[1] = target: T1, ABL1(E255K)-phosphorylated (Homo sapiens, UniProt P00519, E255K); test: KINOMEscan ScanTK; type: binding
T1 construct: purchased Eurofins DiscoverX KINOMEscan (scanTK)

[2] = target: T2, ERBB3 (Homo sapiens, UniProt P21860); test: KINOMEscan ScanTK; type: binding
T2 construct: purchased Eurofins DiscoverX KINOMEscan (scanTK)

[3] = target: T3, INSR (Homo sapiens, UniProt P06213); test: KINOMEscan ScanTK; type: binding
T3 construct: purchased Eurofins DiscoverX KINOMEscan (scanTK)

[4] = target: T4, CSF1R-autoinhibited (Homo sapiens, UniProt P07333); test: KINOMEscan ScanTK; type: binding
T4 construct: purchased Eurofins DiscoverX KINOMEscan (scanTK)
T4 sequence (P07333 539-972 limits assumed): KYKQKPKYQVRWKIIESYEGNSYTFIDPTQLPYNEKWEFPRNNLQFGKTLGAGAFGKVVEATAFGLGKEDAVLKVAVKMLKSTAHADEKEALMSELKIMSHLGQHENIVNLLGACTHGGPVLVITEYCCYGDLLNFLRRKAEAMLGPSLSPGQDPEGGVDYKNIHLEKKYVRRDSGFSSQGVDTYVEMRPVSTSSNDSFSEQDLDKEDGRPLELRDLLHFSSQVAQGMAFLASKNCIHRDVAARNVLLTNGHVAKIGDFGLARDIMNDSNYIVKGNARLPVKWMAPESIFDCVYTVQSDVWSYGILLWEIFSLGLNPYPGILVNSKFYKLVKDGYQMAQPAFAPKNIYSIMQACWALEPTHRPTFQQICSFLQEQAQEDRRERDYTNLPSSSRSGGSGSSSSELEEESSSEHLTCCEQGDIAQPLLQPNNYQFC

[5] = target: T5, DDR1 (Homo sapiens, UniProt Q08345); test: KINOMEscan ScanTK; type: binding
T5 construct: purchased Eurofins DiscoverX KINOMEscan (scanTK)

[6] = target: T6, TRKC (Homo sapiens, UniProt Q16288); test: KINOMEscan ScanTK; type: binding
T6 construct: purchased Eurofins DiscoverX KINOMEscan (scanTK)

[7] = target: T7, FGFR4 (Homo sapiens, UniProt P22455); test: KINOMEscan ScanTK; type: binding
T7 construct: purchased Eurofins DiscoverX KINOMEscan (scanTK)

[8] = target: T8, ABL2 (Homo sapiens, UniProt P42684); test: KINOMEscan ScanTK; type: binding
T8 construct: purchased Eurofins DiscoverX KINOMEscan (scanTK)

[9] = target: T9, PYK2 (Homo sapiens, UniProt Q14289); test: KINOMEscan ScanTK; type: binding
T9 construct: purchased Eurofins DiscoverX KINOMEscan (scanTK)

[10] = target: T10, RET(M918T) (Homo sapiens, UniProt P07949, M918T); test: KINOMEscan ScanTK; type: binding
T10 construct: purchased Eurofins DiscoverX KINOMEscan (scanTK)

[11] = target: T11, EGFR(L861Q) (Homo sapiens, UniProt P00533, L861Q); test: KINOMEscan ScanTK; type: binding
T11 construct: purchased Eurofins DiscoverX KINOMEscan (scanTK)

[12] = target: wild-type BTK (Homo sapiens, UniProt Q06187); test: BTK in vitro activity assay (ADP-Glo, poly-Glu:Tyr phosphorylation, TCEP)
[13] = target: BTK, full length (2–659) (Homo sapiens, UniProt Q06187); test: Kinact/Ki determination, PhosphoSens progress curve analysis; type: biochemical; conditions: BTK
Description: Nonlinear regression was performed using the Solver algorithm in Excel. […] Two-step Kinact/Ki fits were extracted from the progress curve analysis of all compounds against BTK, enabling independent Kinact and Ki determinations.

[14] = target: JAK3, catalytic domain (795–1124) (Homo sapiens, UniProt P52333); test: PhosphoSens enzymatic IC50 (AssayQuant)
Description: Biochemical enzymatic IC50 data were generated by AssayQuant Technologies (Marlborough, MA) using the PhosphoSens Platform. […] Reaction rate versus log [inhibitor concentration] data were fitted to the four-parameter logistic equation [drawing 1]

[15] = target: T12, FLT3(D835V) (Homo sapiens, UniProt P36888, D835V); test: KINOMEscan ScanTK; type: binding
T12 construct: purchased Eurofins DiscoverX KINOMEscan (scanTK)
T12 sequence (P36888 27-993 D835V): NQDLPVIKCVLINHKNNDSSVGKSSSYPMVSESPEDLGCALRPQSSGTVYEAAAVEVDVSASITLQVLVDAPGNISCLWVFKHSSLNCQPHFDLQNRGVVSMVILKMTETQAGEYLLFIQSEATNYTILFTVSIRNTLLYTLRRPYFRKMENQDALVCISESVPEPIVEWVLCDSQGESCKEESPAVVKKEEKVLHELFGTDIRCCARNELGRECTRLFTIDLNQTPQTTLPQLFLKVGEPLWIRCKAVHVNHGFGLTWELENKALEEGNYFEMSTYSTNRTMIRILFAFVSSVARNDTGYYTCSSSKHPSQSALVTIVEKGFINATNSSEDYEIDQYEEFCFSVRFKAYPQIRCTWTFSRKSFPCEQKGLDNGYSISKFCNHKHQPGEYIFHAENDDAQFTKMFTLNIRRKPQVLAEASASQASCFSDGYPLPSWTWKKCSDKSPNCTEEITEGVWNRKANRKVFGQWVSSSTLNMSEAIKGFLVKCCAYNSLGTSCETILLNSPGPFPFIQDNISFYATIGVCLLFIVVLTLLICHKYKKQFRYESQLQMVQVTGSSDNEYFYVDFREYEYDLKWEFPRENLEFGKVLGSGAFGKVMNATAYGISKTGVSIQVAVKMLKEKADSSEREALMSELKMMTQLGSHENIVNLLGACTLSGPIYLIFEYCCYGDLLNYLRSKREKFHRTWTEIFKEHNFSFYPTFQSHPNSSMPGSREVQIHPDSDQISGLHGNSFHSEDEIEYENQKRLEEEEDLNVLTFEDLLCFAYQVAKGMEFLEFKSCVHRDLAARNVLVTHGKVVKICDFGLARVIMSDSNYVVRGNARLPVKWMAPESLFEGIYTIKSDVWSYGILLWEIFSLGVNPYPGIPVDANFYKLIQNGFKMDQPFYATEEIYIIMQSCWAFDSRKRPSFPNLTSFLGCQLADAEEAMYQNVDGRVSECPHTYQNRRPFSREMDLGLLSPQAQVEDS

[16] = @1000nM, ERBB3, read-out: %Control
[17] = ERBB3, read-out: %Control @1000nM

T6 sequence (Q16288 32-839): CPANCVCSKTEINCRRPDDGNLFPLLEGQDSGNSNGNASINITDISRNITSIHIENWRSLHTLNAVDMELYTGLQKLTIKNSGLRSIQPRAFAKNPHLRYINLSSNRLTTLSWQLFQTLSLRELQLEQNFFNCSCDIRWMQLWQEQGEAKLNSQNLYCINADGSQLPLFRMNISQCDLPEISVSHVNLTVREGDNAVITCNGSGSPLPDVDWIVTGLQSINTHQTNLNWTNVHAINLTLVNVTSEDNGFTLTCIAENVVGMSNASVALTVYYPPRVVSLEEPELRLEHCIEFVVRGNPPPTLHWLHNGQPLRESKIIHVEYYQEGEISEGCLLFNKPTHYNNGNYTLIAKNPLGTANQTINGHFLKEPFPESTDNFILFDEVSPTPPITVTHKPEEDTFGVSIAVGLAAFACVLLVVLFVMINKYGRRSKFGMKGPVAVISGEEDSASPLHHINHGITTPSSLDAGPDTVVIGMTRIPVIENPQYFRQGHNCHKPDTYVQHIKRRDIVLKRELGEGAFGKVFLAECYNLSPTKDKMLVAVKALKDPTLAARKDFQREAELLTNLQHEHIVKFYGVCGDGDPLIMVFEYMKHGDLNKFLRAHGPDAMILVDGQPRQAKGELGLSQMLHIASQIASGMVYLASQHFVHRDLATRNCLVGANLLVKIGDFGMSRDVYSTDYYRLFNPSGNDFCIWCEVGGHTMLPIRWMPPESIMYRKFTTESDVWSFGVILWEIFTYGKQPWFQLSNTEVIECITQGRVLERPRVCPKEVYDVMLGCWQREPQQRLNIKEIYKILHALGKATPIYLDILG
T5 sequence (Q08345 19-913): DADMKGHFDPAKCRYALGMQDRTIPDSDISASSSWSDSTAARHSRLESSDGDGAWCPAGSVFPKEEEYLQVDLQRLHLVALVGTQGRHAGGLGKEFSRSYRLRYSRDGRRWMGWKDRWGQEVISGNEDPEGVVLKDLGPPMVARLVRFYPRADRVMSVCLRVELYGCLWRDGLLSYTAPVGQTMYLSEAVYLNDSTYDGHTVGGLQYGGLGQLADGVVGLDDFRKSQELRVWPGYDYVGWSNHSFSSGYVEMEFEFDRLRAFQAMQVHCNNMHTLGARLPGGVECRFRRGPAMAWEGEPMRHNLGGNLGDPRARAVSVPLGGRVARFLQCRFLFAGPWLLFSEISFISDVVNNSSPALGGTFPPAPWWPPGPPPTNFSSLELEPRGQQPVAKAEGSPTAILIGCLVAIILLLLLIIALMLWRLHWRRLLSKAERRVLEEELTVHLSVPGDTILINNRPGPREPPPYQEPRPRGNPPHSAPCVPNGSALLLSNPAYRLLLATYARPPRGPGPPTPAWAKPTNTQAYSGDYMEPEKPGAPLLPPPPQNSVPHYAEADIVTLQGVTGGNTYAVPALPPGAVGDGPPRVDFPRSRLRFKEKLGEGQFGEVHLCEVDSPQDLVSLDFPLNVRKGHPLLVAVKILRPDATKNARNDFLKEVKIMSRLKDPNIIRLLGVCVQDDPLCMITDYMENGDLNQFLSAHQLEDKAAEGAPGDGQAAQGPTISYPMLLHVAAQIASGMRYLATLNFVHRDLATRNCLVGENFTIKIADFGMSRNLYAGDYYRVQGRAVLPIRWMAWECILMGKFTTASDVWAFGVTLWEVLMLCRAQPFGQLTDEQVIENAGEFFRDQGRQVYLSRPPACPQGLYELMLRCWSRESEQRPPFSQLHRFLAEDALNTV
T7 sequence (P22455 22-802): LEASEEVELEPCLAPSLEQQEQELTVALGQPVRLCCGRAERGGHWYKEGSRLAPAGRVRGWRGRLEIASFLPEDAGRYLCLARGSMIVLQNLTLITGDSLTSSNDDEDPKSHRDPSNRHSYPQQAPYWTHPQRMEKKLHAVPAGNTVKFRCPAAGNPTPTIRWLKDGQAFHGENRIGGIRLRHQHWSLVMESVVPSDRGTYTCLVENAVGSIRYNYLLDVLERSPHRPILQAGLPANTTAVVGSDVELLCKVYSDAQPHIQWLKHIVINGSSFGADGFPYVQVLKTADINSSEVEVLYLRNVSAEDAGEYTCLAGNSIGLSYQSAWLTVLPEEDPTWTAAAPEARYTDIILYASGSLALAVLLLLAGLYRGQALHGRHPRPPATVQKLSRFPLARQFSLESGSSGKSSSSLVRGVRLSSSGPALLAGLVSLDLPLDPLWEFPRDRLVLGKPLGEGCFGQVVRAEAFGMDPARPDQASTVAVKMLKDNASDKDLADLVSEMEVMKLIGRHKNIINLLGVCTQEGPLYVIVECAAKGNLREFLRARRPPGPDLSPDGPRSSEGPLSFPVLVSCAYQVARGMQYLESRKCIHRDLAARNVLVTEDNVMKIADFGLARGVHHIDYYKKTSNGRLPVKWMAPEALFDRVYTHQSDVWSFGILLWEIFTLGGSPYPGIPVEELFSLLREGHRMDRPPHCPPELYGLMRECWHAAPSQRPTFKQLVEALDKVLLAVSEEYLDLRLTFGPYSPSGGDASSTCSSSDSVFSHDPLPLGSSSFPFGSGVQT
T1 sequence (P00519 whole entry E255K): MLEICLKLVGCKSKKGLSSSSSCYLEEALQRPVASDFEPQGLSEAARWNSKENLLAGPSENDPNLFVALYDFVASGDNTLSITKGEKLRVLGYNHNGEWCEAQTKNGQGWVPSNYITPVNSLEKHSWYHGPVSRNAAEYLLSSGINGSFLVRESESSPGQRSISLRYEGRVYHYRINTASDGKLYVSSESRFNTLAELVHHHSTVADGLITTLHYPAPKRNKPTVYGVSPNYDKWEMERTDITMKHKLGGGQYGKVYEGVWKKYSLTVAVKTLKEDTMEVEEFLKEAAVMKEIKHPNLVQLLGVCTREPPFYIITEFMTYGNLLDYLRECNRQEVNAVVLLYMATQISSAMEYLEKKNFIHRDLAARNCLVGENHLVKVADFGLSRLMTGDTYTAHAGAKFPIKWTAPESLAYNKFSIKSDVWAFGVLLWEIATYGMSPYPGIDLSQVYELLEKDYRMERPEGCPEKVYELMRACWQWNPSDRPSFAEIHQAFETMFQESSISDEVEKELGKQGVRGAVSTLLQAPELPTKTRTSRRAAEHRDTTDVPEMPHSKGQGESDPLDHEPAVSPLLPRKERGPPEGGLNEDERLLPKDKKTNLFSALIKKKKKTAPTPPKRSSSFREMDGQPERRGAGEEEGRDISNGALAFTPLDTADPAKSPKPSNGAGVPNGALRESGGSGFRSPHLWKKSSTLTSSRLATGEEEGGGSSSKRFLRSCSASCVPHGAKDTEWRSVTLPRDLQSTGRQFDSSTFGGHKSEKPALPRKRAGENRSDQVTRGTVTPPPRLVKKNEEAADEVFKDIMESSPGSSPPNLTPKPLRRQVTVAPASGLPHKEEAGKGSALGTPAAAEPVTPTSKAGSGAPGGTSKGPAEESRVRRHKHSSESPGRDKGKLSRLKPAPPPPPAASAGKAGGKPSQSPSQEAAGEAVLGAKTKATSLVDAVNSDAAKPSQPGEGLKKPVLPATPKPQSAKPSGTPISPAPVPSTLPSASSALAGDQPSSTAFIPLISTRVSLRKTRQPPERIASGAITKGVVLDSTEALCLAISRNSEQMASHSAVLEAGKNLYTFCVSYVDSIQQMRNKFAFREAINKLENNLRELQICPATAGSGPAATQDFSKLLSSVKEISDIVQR
T3 sequence (P06213 28-1382): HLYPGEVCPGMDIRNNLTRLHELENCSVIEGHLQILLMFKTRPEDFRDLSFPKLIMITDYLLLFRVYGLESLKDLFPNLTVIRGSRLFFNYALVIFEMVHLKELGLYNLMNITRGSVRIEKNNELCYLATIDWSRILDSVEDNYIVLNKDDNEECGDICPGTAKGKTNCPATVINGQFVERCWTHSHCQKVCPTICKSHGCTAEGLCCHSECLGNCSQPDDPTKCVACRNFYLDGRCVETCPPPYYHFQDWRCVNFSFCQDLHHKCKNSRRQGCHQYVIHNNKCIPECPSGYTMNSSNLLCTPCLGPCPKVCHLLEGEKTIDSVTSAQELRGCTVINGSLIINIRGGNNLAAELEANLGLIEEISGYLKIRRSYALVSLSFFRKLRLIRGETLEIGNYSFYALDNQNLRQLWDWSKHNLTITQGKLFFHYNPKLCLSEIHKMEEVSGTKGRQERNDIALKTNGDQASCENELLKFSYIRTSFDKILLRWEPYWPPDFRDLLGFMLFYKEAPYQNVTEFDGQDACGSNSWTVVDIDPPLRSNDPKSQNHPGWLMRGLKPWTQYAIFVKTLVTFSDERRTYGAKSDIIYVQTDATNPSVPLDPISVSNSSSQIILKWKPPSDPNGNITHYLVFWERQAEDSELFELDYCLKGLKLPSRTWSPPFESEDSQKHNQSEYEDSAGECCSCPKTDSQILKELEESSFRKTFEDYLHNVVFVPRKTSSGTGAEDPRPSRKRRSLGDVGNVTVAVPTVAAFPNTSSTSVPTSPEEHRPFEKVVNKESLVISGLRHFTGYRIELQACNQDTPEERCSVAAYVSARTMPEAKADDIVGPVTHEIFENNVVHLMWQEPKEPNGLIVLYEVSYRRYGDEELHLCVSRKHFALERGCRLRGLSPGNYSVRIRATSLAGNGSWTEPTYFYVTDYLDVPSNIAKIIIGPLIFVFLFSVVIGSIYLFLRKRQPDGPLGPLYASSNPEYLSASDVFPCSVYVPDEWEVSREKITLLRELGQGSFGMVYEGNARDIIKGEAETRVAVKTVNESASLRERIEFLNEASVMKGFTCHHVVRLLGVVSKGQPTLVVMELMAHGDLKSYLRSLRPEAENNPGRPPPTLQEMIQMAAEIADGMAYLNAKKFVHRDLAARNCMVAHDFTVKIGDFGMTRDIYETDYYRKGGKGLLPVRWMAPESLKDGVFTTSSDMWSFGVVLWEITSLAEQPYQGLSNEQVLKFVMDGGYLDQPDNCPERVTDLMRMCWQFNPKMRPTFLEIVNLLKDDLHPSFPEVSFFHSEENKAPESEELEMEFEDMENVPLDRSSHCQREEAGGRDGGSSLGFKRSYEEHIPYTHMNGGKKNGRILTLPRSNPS

Question: What does the source list for C=CC(=O)N1CCC[C@@H](n2nc(-c3ccc(Oc4ccccc4)cc3)c3c(N)ncnc32)C1 [Compound 1g, Ibrutinib, reference compound]?
Answer: remaining binding at 1 µM ([1]; @1000nM, read-out: %Control): 64%; remaining binding at 1 µM ([1]; read-out: %Control @1000nM): 64%; remaining binding at 1 µM [2, 16]: 0%; remaining binding at 1 µM [2, 17]: 0%; inhibition at 1 µM ([2]; read-out: % inhibition, ERBB3): > 99%; remaining binding at 1 µM ([3]; @1000nM, read-out: %Control): 100%; remaining binding at 1 µM ([3]; read-out: %Control @1000nM): 100%; remaining binding at 1 µM ([4]; @1000nM, read-out: %Control): 77%; remaining binding at 1 µM ([4]; read-out: %Control @1000nM): 77%; remaining binding at 1 µM ([5]; @1000nM, read-out: %Control): 78%; remaining binding at 1 µM ([5]; read-out: %Control @1000nM): 78%; remaining binding at 1 µM ([6]; read-out: %Control): 95%; remaining binding at 1 µM ([6]; read-out: %Control @1000nM): 95%; remaining binding at 1 µM ([7]; @1000nM, read-out: %Control): 96%; remaining binding at 1 µM ([7]; read-out: %Control @1000nM): 96%; remaining binding at 1 µM ([8]; @1000nM, read-out: %Control): 41%; remaining binding at 1 µM ([8]; read-out: %Control @1000nM): 41%; remaining binding at 1 µM ([9]; @1000nM, read-out: %Control): 100%; remaining binding at 1 µM ([9]; read-out: %Control @1000nM): 100%; remaining binding at 1 µM ([10]; @1000nM, read-out: %Control): 14%; remaining binding at 1 µM ([10]; read-out: %Control @1000nM): 14%

Question: With Cc1cnc(S(C)(=O)=O)nc1N1CCCC(n2nc(-c3ccc(Oc4ccccc4)cc3)c3c(N)ncnc32)C1 (stereo not shown) [Compound 8a, 1-(1-(5-Methyl-2-(methylsulfonyl)pyrimidin-4-yl)piperidin-3-yl)-3-(4-phenoxyphenyl)-1H-pyrazolo[3,4-d]pyrimidin-4-amine] as the molecule, how does the difference in %Control from reference Ib at 1 µM ([1]; @1000nM, read-out: % difference (compound - Ib %Control)) read?
Answer: Its difference in %Control from reference Ib at 1 µM is 12%.

Question: And the remaining binding at 1 µM ([1]; @1000nM, read-out: %Control)?
Answer: The remaining binding at 1 µM was 76%.

Question: What about the remaining binding at 1 µM ([1]; read-out: %Control @1000nM) of the same molecule?
Answer: Its remaining binding at 1 µM is 76%.

Question: And the difference in % of control versus compound Ib at 1 µM ([11]; @1000nM)?
Answer: The difference in % of control versus compound Ib at 1 µM was 81.2%.

Question: What about the remaining binding at 1 µM ([11]; @1000nM, read-out: %Control) of the same molecule?
Answer: Its remaining binding at 1 µM is 82%.

Question: What about the remaining binding at 1 µM ([11]; read-out: %Control @1000nM) of the same molecule?
Answer: The remaining binding at 1 µM was 82%.

Question: And the IC50 [12]?
Answer: The IC50 was 24 ± 2 nM.

Question: And the remaining activity at 0.1 µM ([12]; read-out: Remaining BTK activity (%))?
Answer: The remaining activity at 0.1 µM was 4 ± 1%.

Question: What about the Ki [13] of the same molecule?
Answer: The Ki was 9.08 ± 0.41 nM.

Question: What about the kinact [13] of the same molecule?
Answer: The kinact was 0.00659 ± 0.00019 s⁻¹.

Question: And the kinact/KI ([13]; read-out: Kinact/Ki)?
Answer: Its kinact/KI is 726000 M⁻¹ s⁻¹.

Question: And the % of control difference from compound Ib at 1 µM ([2]; @1000nM, ERBB3)?
Answer: Its % of control difference from compound Ib at 1 µM is 0%.

Question: And the remaining binding at 1 µM [2, 16]?
Answer: Its remaining binding at 1 µM is 0%.

Question: And the remaining binding at 1 µM [2, 17]?
Answer: The remaining binding at 1 µM was 0%.

Question: What about the difference in %Control versus compound Ib at 1 µM ([3]; @1000nM) of the same molecule?
Answer: Its difference in %Control versus compound Ib at 1 µM is -5%.

Question: And the remaining binding at 1 µM ([3]; @1000nM, read-out: %Control)?
Answer: The remaining binding at 1 µM was 95%.

Question: And the remaining binding at 1 µM ([3]; read-out: %Control @1000nM)?
Answer: Its remaining binding at 1 µM is 95%.

Question: What about the difference in %Control versus compound Ib at 1 µM ([4]; @1000nM) of the same molecule?
Answer: Its difference in %Control versus compound Ib at 1 µM is 11%.

Question: What about the remaining binding at 1 µM ([4]; @1000nM, read-out: %Control) of the same molecule?
Answer: The remaining binding at 1 µM was 88%.

Question: And the remaining binding at 1 µM ([4]; read-out: %Control @1000nM)?
Answer: Its remaining binding at 1 µM is 88%.

Question: And the IC50 [14]?
Answer: The IC50 was over 1000 nM.

Question: What about the difference in %Control from compound Ib at 1 µM ([5]; @1000nM) of the same molecule?
Answer: The difference in %Control from compound Ib at 1 µM was 5%.

Question: And the remaining binding at 1 µM ([5]; @1000nM, read-out: %Control)?
Answer: The remaining binding at 1 µM was 83%.

Question: And the remaining binding at 1 µM ([5]; read-out: %Control @1000nM)?
Answer: The remaining binding at 1 µM was 83%.

Question: And the difference in %Control versus compound Ib at 1 µM ([6]; @1000nM, TRKC)?
Answer: The difference in %Control versus compound Ib at 1 µM was -17%.

Question: And the remaining binding at 1 µM ([6]; @1000nM, TRKC, read-out: %Control)?
Answer: Its remaining binding at 1 µM is 78%.

Question: And the remaining binding at 1 µM ([6]; TRKC, read-out: %Control @1000nM)?
Answer: The remaining binding at 1 µM was 78%.

Question: What about the difference in %Control from compound Ib at 1 µM ([7]; @1000nM) of the same molecule?
Answer: Its difference in %Control from compound Ib at 1 µM is 1%.

Question: What about the remaining binding at 1 µM ([7]; @1000nM, read-out: %Control) of the same molecule?
Answer: The remaining binding at 1 µM was 97%.

Question: And the remaining binding at 1 µM ([7]; read-out: %Control @1000nM)?
Answer: Its remaining binding at 1 µM is 97%.

Question: And the difference in %Control from reference compound Ib at 1 µM ([8]; @1000nM)?
Answer: Its difference in %Control from reference compound Ib at 1 µM is 29%.

Question: And the remaining binding at 1 µM ([8]; @1000nM, read-out: %Control)?
Answer: Its remaining binding at 1 µM is 70%.

Question: What about the remaining binding at 1 µM ([8]; read-out: %Control @1000nM) of the same molecule?
Answer: The remaining binding at 1 µM was 70%.

Question: What about the remaining binding at 1 µM ([9]; @1000nM, read-out: %Control) of the same molecule?
Answer: The remaining binding at 1 µM was 92%.

Question: And the remaining binding at 1 µM ([9]; read-out: %Control @1000nM)?
Answer: The remaining binding at 1 µM was 92%.

Question: And the difference in %Control versus compound Ib at 1 µM ([15]; @1000nM)?
Answer: The difference in %Control versus compound Ib at 1 µM was 20.1%.

Question: What about the remaining binding at 1 µM ([15]; @1000nM, read-out: %Control) of the same molecule?
Answer: Its remaining binding at 1 µM is 30%.

Question: And the remaining binding at 1 µM ([15]; read-out: %Control @1000nM)?
Answer: Its remaining binding at 1 µM is 30%.

Question: What about the remaining binding at 1 µM ([10]; @1000nM, read-out: %Control) of the same molecule?
Answer: The remaining binding at 1 µM was 53%.

Question: And the remaining binding at 1 µM ([10]; read-out: %Control @1000nM)?
Answer: Its remaining binding at 1 µM is 53%.

Source: publication PMC11345841, “Exploring 2-Sulfonylpyrimidine Warheads as Acrylamide Surrogates for Targeted Covalent Inhibition: A BTK Story” (Journal of Medicinal Chemistry, 2024)
